Source: patent EP4585599A1, “NITROGEN-CONTAINING FUSED RING COMPOUND, INTERMEDIATE THEREOF, PREPARATION METHOD THEREFOR AND USE THEREOF” (Hangzhou Synrx Therapeutics Biomedical Technology Co., Ltd., priority 2022, dated 2024)
Read-outs that look alike come from different tables or passages of the source.

Key:
[1] = molecular target: T1, helicase domain of the Pol θ protein (Homo sapiens, UniProt O75417); assay: Biochemical Activity Assay (ADP Glo Assay) of Pol θ inhibitor, ATPase activity
T1 construct: The helicase domain of the Pol θ protein was purified from insect protein expression system; made in house; host or cells: insect protein expression system
T1 sequence (O75417 102-554 limits assumed): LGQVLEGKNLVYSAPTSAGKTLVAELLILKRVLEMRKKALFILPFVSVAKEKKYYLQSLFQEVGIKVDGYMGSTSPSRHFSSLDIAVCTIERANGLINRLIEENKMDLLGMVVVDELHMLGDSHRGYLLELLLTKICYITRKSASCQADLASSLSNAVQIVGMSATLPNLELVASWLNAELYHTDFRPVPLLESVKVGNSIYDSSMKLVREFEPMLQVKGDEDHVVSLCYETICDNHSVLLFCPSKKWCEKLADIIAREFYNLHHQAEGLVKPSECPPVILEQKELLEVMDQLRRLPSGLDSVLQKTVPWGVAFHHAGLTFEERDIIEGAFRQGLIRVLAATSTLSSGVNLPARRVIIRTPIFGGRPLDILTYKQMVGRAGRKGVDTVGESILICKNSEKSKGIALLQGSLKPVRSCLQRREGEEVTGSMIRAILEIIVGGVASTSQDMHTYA

cells = settings: Homo sapiens, DLD-1, 240 h
[2] = read-out: Cell viability assay IC50 (nM)
[3] = ADP-Glo assay, ATPase activity of Pol θ helicase domain, ssDNA substrate, read-out: Biochemical assay IC50
[4] = read-out: Cell viability assay IC50 (nM), CTG assay, CellTiter Glo, read on Day 10, cell line not given
[5] = ADP-Glo, ssDNA substrate, 60 min at room temperature, read-out: Biochemical assay IC50
[6] = read-out: Cell viability assay IC50 (nM), CTG on Day 10, cell line not given (method: DLD1 and DLD1^-/- cells)

| IC50 [1, 3] [nM] | IC50 [1, 5] [nM] | Compound | IC50 ([1]; Biochemical assay IC50 (nM)) [nM] | IC50 (cells; [2]) [nM] | IC50 (cells; [4]) [nM] | IC50 ([1]; Biochemical assay IC50 (nM), ADP-Glo assay, ATPase activity of Pol θ helicase domain, ssDNA substrate) [nM] | IC50 (cells; [6]) [nM] |
| --- | --- | --- | --- | --- | --- | --- | --- |
| – | – | COc1cnc(Cl)cc1-c1cc(C)ncc1C(=O)Nc1nc2[nH]c(=O)c(-c3c(C)cnn3C)cc2s1 [Example 178, 2'-chloro-N-(6-(1,4-dimethyl-1H-parazol-5-yl)-5-oxo-4,5-dihydrothiazolo[4,5-b]pyridin-2-yl)-5'-methoxvy-6-methyl-[4,4'-bipyridine]-3-carboxamide] | 1.63 | 35.5 | – | – | – |
| 163 | – | COc1cnc(Cl)cc1-c1cc(C)ncc1C(=O)Nc1nc2ccc(N3CCc4ccccc4C3)nc2s1 [Example 132] | – | – | 158 | – | – |
| – | – | COc1cnc(Cl)cc1-c1cc(C)ncc1C(=O)Nc1nc2c(s1)CN(C(=O)c1ccccc1)CC2 [Example 191, N-(5-benzoyl-4.5.6,7-tetrahydrothiazolo[5.4]pyridin-2-yl)-2'-chloro-5'-methoxy-6-methyl-[4,4'-bipyridine]-3-carboxamide] | – | 521 | – | 29.3 | – |
| 36.7 | – | COc1cnc(Cl)cc1-c1cc(C)ncc1C(=O)Nc1nc2ncc(CN3CCC(O)CC3)cc2s1 [Example 144] | – | – | 2220 | – | – |
| 8.06 | < 50 | COc1cnc(Cl)cc1-c1cc(C)ncc1C(=O)Nc1nc2ccc(N3CCC(O)CC3)cc2s1 [Example 102] | – | – | 178 | – | < 100 |
| 2.75 | – | COc1cnc(Cl)cc1-c1cc(C)ncc1C(=O)Nc1nc2nnc(-c3c(C)cnn3C)cc2s1 [Example 159] | – | – | 1170 | – | – |
| 5.93 | < 50 | COc1cnc(Cl)cc1-c1cc(C)ncc1C(=O)Nc1nc2ncc(CC(C)(C)O)cc2s1 [Example 93, 2'-chloro-N-(6-(2-hydroxy-2-methylpropyl)thiazolo[4,5-b]pyridin-2-yl)-5'-methoxy-6-me thyl-[4,4'-bipyridine]-3-carboxamide] | – | – | 355 | – | 100 to 500 |
| – | – | COc1cnc(Cl)cc1-c1cc(C)ncc1C(=O)Nc1nc2nnc(C3=CCC(O)CC3)cc2s1 (stereo not shown) [Example 183, 2'-chloro-N-(3-(4-hydroxycyclohexyl-1-en-1-yl)thiazolo[4,5-c]pyridazin-6-yl)-5'-methox y-6-methyl-[4,4'-bipyridine]-3-carboxamide] | 3.41 | 1260 | – | – | – |
| 6.31 | – | COc1cnc(Cl)cc1-c1cc(C)ncc1C(=O)Nc1nc2cnc(-c3c(C)nn4ccccc34)cc2s1 [Example 158] | – | – | 4.64 | – | – |
| – | – | CCP(=O)(CC)c1ccc(-c2cnc3nc(NC(=O)c4cnc(C)cc4-c4cc(Cl)ncc4OC)sc3c2)cc1 [Example 186] | 5.58 | 1520 | – | – | – |
| – | – | COc1cnc(Cl)cc1-c1cc(C)ncc1C(=O)Nc1nc2cnc(-c3c(C(F)F)nnn3C)cc2s1 [Example 226, 2'-chloro-N-(6-(4-(difluoromethyl)-1-methyl-1H-1,2,3-triazol-5-yl)thiazolo[4,5-c]pyridin-2-yl)-5'-methoxv-6-methyl-[4.4'-bipyridine]-3-carboxamide] | 4.02 | 8.46 | – | – | – |
| 19.1 | – | COc1cnc(Cl)cc1-c1cc(C)ncc1C(=O)Nc1nc2ccc(N3CCn4ccnc4C3)nc2s1 [Example 139] | – | – | 121 | – | – |
| 4.46 | < 50 | COc1cnc(Cl)cc1-c1cc(C)ncc1C(=O)Nc1nc2ncc(N3CCCC(O)C3)cc2s1 (stereo not shown) [Example 71] | – | – | 142 | – | 100 to 500 |
| 3.94 | < 50 | COc1cnc(Cl)cc1-c1cc(C)ncc1C(=O)Nc1nc2ncc(-n3ccccc3=O)cc2s1 [Example 25] | – | – | 138 | – | 100 to 500 |
| 4.11 | – | COc1cnc(Cl)cc1-c1cc(C)ncc1C(=O)Nc1nc2ncc(N3CCC(C(C)(C)O)CC3)nc2s1 [Example 134] | – | – | 5.41 | – | – |
| 5.58 | – | COc1cnc(Cl)cc1-c1cc(C)ncc1C(=O)Nc1nc2cnc(-c3c(C)nn(C)c3C#N)cc2s1 [Example 150] | – | – | 21.5 | – | – |
| 6.99 | < 50 | COc1cnc(Cl)cc1-c1cc(C)ncc1C(=O)Nc1nc2ncc(-c3ccnc(N4CCN[C@H](C)C4)c3)cc2s1 [Example 105, (R)-2'-chloro-5'-methoxy-6-methyl-N-(6-(2-(3-methylpiperazin-1-yl)pyridin-4-yl)thiazolo[4,5-b]pyridin-2-yl)-[4,4'-bipyridine]-3-carboxamide] | – | – | 152 | – | 100 to 500 |

| IC50 [1, 3] [nM] | IC50 [1, 5] [nM] | Compound | IC50 ([1]; Biochemical assay IC50 (nM)) [nM] | IC50 (cells; [2]) [nM] | IC50 (cells; [4]) [nM] | IC50 ([1]; Biochemical assay IC50 (nM), ADP-Glo assay, ATPase activity of Pol θ helicase domain, ssDNA substrate) [nM] | IC50 (cells; [6]) [nM] |
| --- | --- | --- | --- | --- | --- | --- | --- |
| 8.57 | < 50 | COc1cnc(Cl)c(F)c1-c1cc(C)ncc1C(=O)Nc1nc2ncc(-c3ccn(C)n3)cc2s1 [Example 17] | – | – | 103 | – | 100 to 500 |
| 8.57 | – | COc1cnc(Cl)cc1-c1cc(C)ncc1C(=O)Nc1nc2ccc(-c3c(C)cnn3C)c(F)c2s1 [Example 151] | – | – | 3.98 | – | – |
| 115 | 50 to 200 | COc1cnc(Cl)cc1-c1cc(C)ncc1C(=O)Nc1nc2ccc(C3=CCC(O)CC3)c(C#N)c2s1 (stereo not shown) [Example 22] | – | – | 1580 | – | > 1000 |
| 3.02 | – | COc1cnc(Cl)cc1-c1cc(C)ncc1C(=O)Nc1nc2cnc(-c3c(C)nn(C)c3C(N)=O)cc2s1 [Example 152] | – | – | 17.2 | – | – |
| 4.02 | – | COc1cnc(Cl)cc1-c1cc(C)ncc1C(=O)Nc1nc2ncc(N3CCC(O)C(C)(C)C3)cc2s1 (stereo not shown) [Example 118] | – | – | 23 | – | – |
| 3.11 | – | COc1cnc(C(F)F)cc1-c1cc(C)ncc1C(=O)Nc1nc2cnc(-c3c(C)nnn3C)c(F)c2s1 [Example 215, 2'-(difluoromethyl)-N-(6-(1,4-dimethyl-1H-1,2,3-triazol-5-yl)-7-fluorothiazolo[4,5-c]pyridin-2-yl)-5'-methoxy-6-methyl-[4,4'-bipyridine]-3-carboxamide] | – | – | 2.92 | – | – |
| 26.4 | < 50 | Cc1cc(-c2c(F)cccc2OC(F)F)c(C(=O)Nc2nc3ccc(C4=CCC(O)CC4)nc3s2)cn1 (stereo not shown) [Example 7] | – | – | 73.6 | – | < 100 |
| 4.93 | – | COc1cnc(Cl)cc1-c1cc(C)ncc1C(=O)Nc1nc2ccc(-c3c(C)cnn3C)cc2s1 [Example 148] | – | – | 4.13 | – | – |
| 2.72 | < 50 | COc1cnc(Cl)cc1-c1cc(C)ncc1C(=O)Nc1nc2ncc(N3CCN(S(C)(=O)=O)CC3)cc2s1 [Example 65] | – | – | 42.2 | – | < 100 |
| 8.57 | – | COc1cnc(C(F)F)cc1-c1cc(C)ncc1C(=O)Nc1nc2cnc(N3CCOCC3=O)nc2s1 [Example 204] | – | – | 541 | – | – |
| 6.44 | < 50 | COc1cnc(Cl)cc1-c1cc(C)ncc1C(=O)Nc1nc2ncc(N3CCC(NC(=O)C4(C)CC4)CC3)cc2s1 [Example 74] | – | – | 383 | – | 100 to 500 |
| 10 | – | COc1cnc(Cl)c(F)c1-c1cc(C)ncc1C(=O)Nc1nc2cc(F)c(N3CCC(O)CC3)nc2s1 [Example 125] | – | – | 3.98 | – | – |
| 149 | – | COc1cnc(Cl)cc1-c1cc(C)ncc1C(=O)Nc1nc2ccc(N3CCc4ccccc43)nc2s1 [Example 131] | – | – | 736 | – | – |
| 2.51 | – | COc1cnc(C(F)F)cc1-c1cc(C)ncc1C(=O)Nc1nc2ccc(-c3c(C)nnn3C)cc2s1 [Example 223] | – | – | 10 | – | – |
| – | – | CCP(=O)(CC)c1ccc(-c2ccc3nc(NC(=O)c4cnc(C)cc4-c4cc(Cl)ncc4OC)sc3c2)cc1 [Example 187] | 8.75 | 271 | – | – | – |
| 1.62 | < 50 | COc1cnc(Cl)c(F)c1-c1cc(C)ncc1C(=O)Nc1nc2ccc(C3CCC(O)CC3)cc2s1 (stereo not shown) [Example 30] | – | – | 19.2 | – | < 100 |
